Patent US9540388B2, “P2X7 modulators” (Janssen Pharmaceutica NV, priority 2013, dated 2017)

Experiments:
P2X7 [1] = target: T1, P2X7 (Homo sapiens (Human), UniProt Q99572); assay: Radioligand binding, recombinant human P2X7-1321N1 cell membranes, tritiated A-804598; settings: Table 2, additional runs
Protocol: (§1) P2X7 Antagonism in Recombinant Human P2X7 Cells or Recombinant Rat P2X7 Cells: (a) Ca^2+ Flux and (b) Radioligand Binding
(§2) human or rat P2X7-1321N1 cells were collected and frozen @−80° C. On the day of the experiment, cell membrane preparations were made according to standard published methods. […] The compound can be prepared as described in the literature. […] The assay was terminated by filtration (GF/B filters pre-soaked with 0.3% PEI) and washed with washing buffer (Tris-HCl 50 mM). The IC50 generated in the binding assay was corrected for tracer concentration and affinity of the tracer to derive at the affinity (Ki) of the test compounds. […] Data are analyzed and graphed on Graphpad Prism 5.

P2X7 [2] = target: T1, P2X7; assay: Ca2+ flux (FLIPR) in 1321N1 cells expressing recombinant human P2X7; type: cell-based; settings: Table 2, additional runs; 250 μM BzATP
Protocol: as §1
(§3) 1321N1 cells expressing the recombinant human or rat P2X7 channel was cultured in HyQ DME/(HyClone/Dulbecco's Modified Eagle Medium) high glucose supplemented with 10% Fetal Bovine Serum (FBS) and appropriate selection marker. Cells were seeded at a density of 25000 cells/well (96-well clear bottom black walled plates) in 100 μl volume/well. On the day of the experiment, cell plates were washed with assay buffer, containing (in mM): 130 NaCl, 2 KCl, 1 CaCl2, 1 MgCl2, 10 HEPES, 5 glucose; pH 7.40 and 300 mOs. After the wash, cells were loaded with the Calcium-4 dye (Molecular Device) and incubated in the dark for 60 minutes. Test compounds were prepared at 250× the test concentration in neat DMSO. Intermediate 96-well compound plates were prepared by transferring 1.2 μL of the compound into 300 μL of assay buffer. A further 3× dilution occurred when transferring 50 μL/well of the compound plate to 100 μL/well in the cell plate. Cells were incubated with test compounds and dye for 30 minutes. […] The fluorescence change was measured 180 seconds after adding the agonist.

rat P2X7 [3] = target: T2, rat P2X7 (Rattus norvegicus (Rat), UniProt Q64663); assay: Ca2+ flux (FLIPR) in 1321N1 cells expressing recombinant rat P2X7; type: cell-based; settings: Table 2, additional runs; 250 μM BzATP
T2 sequence (Q64663 whole entry): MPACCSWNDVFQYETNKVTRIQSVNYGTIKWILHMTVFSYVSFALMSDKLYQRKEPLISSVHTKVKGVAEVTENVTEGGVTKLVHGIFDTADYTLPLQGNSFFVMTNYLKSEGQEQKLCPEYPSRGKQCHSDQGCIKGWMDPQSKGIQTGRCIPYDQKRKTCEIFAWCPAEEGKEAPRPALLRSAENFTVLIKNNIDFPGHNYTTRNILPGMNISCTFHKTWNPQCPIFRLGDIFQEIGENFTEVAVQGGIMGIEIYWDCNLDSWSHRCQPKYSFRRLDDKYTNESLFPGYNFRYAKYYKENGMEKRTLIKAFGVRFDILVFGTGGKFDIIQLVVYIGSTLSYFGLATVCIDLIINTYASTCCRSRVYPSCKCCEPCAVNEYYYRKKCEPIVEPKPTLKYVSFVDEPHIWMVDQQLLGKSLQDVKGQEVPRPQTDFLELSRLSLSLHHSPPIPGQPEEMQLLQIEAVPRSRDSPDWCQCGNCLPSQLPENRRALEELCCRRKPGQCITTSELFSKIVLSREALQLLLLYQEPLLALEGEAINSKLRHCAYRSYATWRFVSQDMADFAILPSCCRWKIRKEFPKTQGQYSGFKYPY
Protocol: as §1, §3

rat P2X7 [4] = target: T2, rat P2X7; assay: Radioligand binding, recombinant rat P2X7-1321N1 cell membranes, tritiated A-804598; settings: Table 2, additional runs
Protocol: as §1, §2

T1 sequence (Q99572 whole entry): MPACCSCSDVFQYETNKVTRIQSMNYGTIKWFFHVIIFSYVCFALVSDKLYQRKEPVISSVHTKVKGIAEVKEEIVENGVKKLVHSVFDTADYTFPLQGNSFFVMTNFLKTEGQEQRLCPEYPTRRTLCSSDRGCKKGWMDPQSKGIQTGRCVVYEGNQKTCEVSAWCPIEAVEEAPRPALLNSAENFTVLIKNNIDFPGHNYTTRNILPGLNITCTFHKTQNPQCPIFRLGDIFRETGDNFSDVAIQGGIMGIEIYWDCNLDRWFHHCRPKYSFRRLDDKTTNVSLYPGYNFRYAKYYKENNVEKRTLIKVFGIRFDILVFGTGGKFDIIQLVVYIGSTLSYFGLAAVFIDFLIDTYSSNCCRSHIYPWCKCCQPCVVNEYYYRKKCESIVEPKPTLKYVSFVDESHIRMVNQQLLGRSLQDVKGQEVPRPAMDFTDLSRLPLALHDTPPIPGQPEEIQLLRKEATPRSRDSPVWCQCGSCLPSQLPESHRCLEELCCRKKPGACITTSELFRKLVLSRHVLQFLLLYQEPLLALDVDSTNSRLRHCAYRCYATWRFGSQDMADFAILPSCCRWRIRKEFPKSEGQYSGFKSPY

SMILES	Ki (P2X7 [1])	IC50 (P2X7 [2])	IC50 (rat P2X7 [3])	Ki (rat P2X7 [4])
Cc1ccnc(-c2nnc3n2C[C@H]2CCC[C@@H]3N2C(=O)c2cccc(C(F)(F)F)c2Cl)c1 (stereo in doubt) [Example 194, (6R,10S)-11-{[2-Chloro-3-(trifluoromethyl)phenyl]carbonyl}-3-(4-methylpyridin-2-yl)-5,6,7,8,9,10-hexahydro-6,10-epimino[1,2,4]triazolo[4,3-a]azocine]	0.0141 µM	0.0173 µM	0.0074 µM	0.0031 µM
O=C(c1cccc(C(F)(F)F)c1Cl)N1[C@@H]2CCC[C@H]1c1nnc(-c3cc(C(F)(F)F)ccn3)n1C2 (stereo in doubt) [Example 196, (6R,10S)-11-{[2-Chloro-3-(trifluoromethyl)phenyl]carbonyl}-3-[4-(trifluoromethyl)pyridin-2-yl]-5,6,7,8,9,10-hexahydro-6,10-epimino[1,2,4]triazolo[4,3-a]azocine]	0.0219 µM	0.0016 µM	0.0017 µM	0.0058 µM
O=C(c1ccnc(C(F)(F)F)c1F)N1[C@@H]2CCC[C@H]1c1nnc(-c3ccccn3)n1C2 (stereo in doubt) [Example 198, (6R,10S)-11-{[3-Fluoro-2-(trifluoromethyl)pyridin-4-yl]carbonyl}-3-pyridin-2-yl-5,6,7,8,9,10-hexahydro-6,10-epimino[1,2,4]triazolo[4,3-a]azocine]	0.0098 µM	0.0209 µM	0.327 µM	0.0062 µM
O=C(c1ccc(F)c(Cl)c1Cl)N1[C@@H]2CCC[C@H]1c1nnc(-c3ccccn3)n1C2 (stereo in doubt) [Example 203, (6R,10S)-11-[(2,3-Dichloro-4-fluorophenyl)carbonyl]-3-pyridin-2-yl-5,6,7,8,9,10-hexahydro-6,10-epimino[1,2,4]triazolo[4,3-a]azocine]	0.0053 µM	0.0253 µM	0.02 µM	0.0022 µM
O=C(c1ccc(Cl)c(F)c1Cl)N1[C@@H]2CCC[C@H]1c1nnc(-c3ccccn3)n1C2 (stereo in doubt) [Example 202, (6R,10S)-11-[(2,4-Dichloro-3-fluorophenyl)carbonyl]-3-pyridin-2-yl-5,6,7,8,9,10-hexahydro-6,10-epimino[1,2,4]triazolo[4,3-a]azocine]	0.0039 µM	0.0176 µM	0.462 µM	0.0058 µM
O=C(c1ccc(F)c(C(F)(F)F)c1Cl)N1[C@@H]2CCC[C@H]1c1nnc(-c3ccccn3)n1C2 (stereo in doubt) [Example 200, (6R,10S)-11-{[2-Chloro-4-fluoro-3-(trifluoromethyl)phenyl]carbonyl}-3-pyridin-2-yl-5,6,7,8,9,10-hexahydro-6,10-epimino[1,2,4]triazolo[4,3-a]azocine]	0.0107 µM	[…]	0.0102 µM	0.0032 µM
O=C(c1ccnc(C(F)(F)F)c1Cl)N1[C@@H]2CCC[C@H]1c1nnc(-c3ccccn3)n1C2 (stereo in doubt) [Example 199, (6R,10S)-11-{[3-Chloro-2-(trifluoromethyl)pyridin-4-yl]carbonyl}-3-pyridin-2-yl-5,6,7,8,9,10-hexahydro-6,10-epimino[1,2,4]triazolo[4,3-a]azocine]	0.0251 µM	0.0295 µM	0.0127 µM	0.005 µM
Cc1c(C(=O)N2[C@@H]3CCC[C@H]2c2nnc(-c4ccccn4)n2C3)cccc1C(F)(F)F (stereo in doubt) [Example 201, (6R,10S)-11-{[2-Methyl-3-(trifluoromethyl)phenyl]carbonyl}-3-pyridin-2-yl-5,6,7,8,9,10-hexahydro-6,10-epimino[1,2,4]triazolo[4,3-a]azocine]	0.0115 µM	0.014 µM	0.726 µM	0.0032 µM
Cc1nc(-c2nnc3n2C[C@H]2CCC[C@@H]3N2C(=O)c2cccc(C(F)(F)F)c2Cl)ccc1F (stereo in doubt) [Example 193, (6R,10S)-11-{[2-Chloro-3-(trifluoromethyl)phenyl]carbonyl}-3-(5-fluoro-6-methylpyridin-2-yl)-5,6,7,8,9,10-hexahydro-6,10-epimino[1,2,4]triazolo[4,3-a]azocine]	0.0708 µM	0.0307 µM	0.0411 µM	0.0049 µM
O=C(c1cccc(C(F)(F)F)c1Cl)N1[C@@H]2CCC[C@H]1c1nnc(-c3ccncn3)n1C2 (stereo in doubt) [Example 197, (6R,10S)-11-{[2-Chloro-3-(trifluoromethyl)phenyl]carbonyl}-3-pyrimidin-4-yl-5,6,7,8,9,10-hexahydro-6,10-epimino[1,2,4]triazolo[4,3-a]azocine]	0.0191 µM	0.0107 µM	1.49 µM	0.0631 µM
O=C(c1cccc(C(F)(F)F)c1Cl)N1[C@@H]2CCC[C@H]1c1nnc(-c3cccnn3)n1C2 (stereo in doubt) [Example 195, (6R,10S)-11-{[2-Chloro-3-(trifluoromethyl)phenyl]carbonyl}-3-pyridazin-3-yl-5,6,7,8,9,10-hexahydro-6,10-epimino[1,2,4]triazolo[4,3-a]azocine]	0.0209 µM	0.04 µM	> 10 µM	
